Data published in the NIST ThermoML archive (doi:10.1016/j.jct.2019.03.023).
Values joined by “and” are separate entries in the source; they are usually repeats but may differ in a detail not shown here. Equal values may be shown once.

Assay: molar heat capacity at constant volume
Details: Vacuum adiabatic calorimetry

CC(C)O [propan-2-ol]
Fluid (supercritical or subcritical phases)
Details | molar heat capacity at constant volume
380.8 K, Mass density=697.69 kg/m3 | 187.08 J/K/mol
380.91 K, Mass density=697.69 kg/m3 | 187.8 J/K/mol
381.02 K, Mass density=697.69 kg/m3 | 186.29 J/K/mol
381.13 K, Mass density=697.69 kg/m3 | 184.61 J/K/mol
381.24 K, Mass density=697.69 kg/m3 | 185.39 J/K/mol
381.35 K, Mass density=697.69 kg/m3 | 184.49 J/K/mol
381.46 K, Mass density=697.69 kg/m3 | 184.01 J/K/mol
381.57 K, Mass density=697.69 kg/m3 | 184.67 J/K/mol
381.69 K, Mass density=697.69 kg/m3 | 184.97 J/K/mol
391.32 K, Mass density=329.2 kg/m3 | 243.38 J/K/mol
391.53 K, Mass density=329.2 kg/m3 | 248.85 J/K/mol
391.54 K, Mass density=329.2 kg/m3 | 243.44 J/K/mol
391.65 K, Mass density=329.2 kg/m3 | 246.93 J/K/mol
391.76 K, Mass density=329.2 kg/m3 | 235.69 J/K/mol
391.87 K, Mass density=329.2 kg/m3 | 241.16 J/K/mol
391.98 K, Mass density=329.2 kg/m3 | 242.54 J/K/mol
392.09 K, Mass density=329.2 kg/m3 | 244.11 J/K/mol
392.2 K, Mass density=329.2 kg/m3 | 243.2 J/K/mol
399.51 K, Mass density=343.1 kg/m3 | 235.93 J/K/mol
399.72 K, Mass density=343.1 kg/m3 | 235.93 J/K/mol
399.83 K, Mass density=343.1 kg/m3 | 239.24 J/K/mol
399.94 K, Mass density=343.1 kg/m3 | 242.54 J/K/mol
400.04 K, Mass density=343.1 kg/m3 | 236.05 J/K/mol
400.15 K, Mass density=343.1 kg/m3 | 239.36 J/K/mol
400.25 K, Mass density=343.1 kg/m3 | 239.42 J/K/mol
400.36 K, Mass density=343.1 kg/m3 | 239.42 J/K/mol
400.46 K, Mass density=343.1 kg/m3 | 236.23 J/K/mol
400.57 K, Mass density=343.1 kg/m3 | 239.54 J/K/mol
416.55 K, Mass density=329.2 kg/m3 | 258.83 J/K/mol
416.65 K, Mass density=329.2 kg/m3 | 260.09 J/K/mol
416.76 K, Mass density=329.2 kg/m3 | 252.52 J/K/mol
416.86 K, Mass density=329.2 kg/m3 | 257.99 J/K/mol
416.97 K, Mass density=329.2 kg/m3 | 255.76 J/K/mol
417.08 K, Mass density=329.2 kg/m3 | 261.47 J/K/mol
417.18 K, Mass density=329.2 kg/m3 | 252.94 J/K/mol
417.29 K, Mass density=329.2 kg/m3 | 253.84 J/K/mol
417.39 K, Mass density=329.2 kg/m3 | 259.73 J/K/mol
417.5 K, Mass density=329.2 kg/m3 | 261.17 J/K/mol
442.12 K, Mass density=329.2 kg/m3 | 262.92 J/K/mol
442.23 K, Mass density=329.2 kg/m3 | 265.86 J/K/mol
442.33 K, Mass density=329.2 kg/m3 | 272.53 J/K/mol
442.43 K, Mass density=329.2 kg/m3 | 265.68 J/K/mol
442.54 K, Mass density=329.2 kg/m3 | 266.76 J/K/mol
442.64 K, Mass density=329.2 kg/m3 | 267.6 J/K/mol
442.74 K, Mass density=329.2 kg/m3 | 270.13 J/K/mol
442.85 K, Mass density=329.2 kg/m3 | 265.86 J/K/mol
447.55 K, Mass density=581.06 kg/m3 | 250.9 J/K/mol
447.75 K, Mass density=581.06 kg/m3 | 250.96 J/K/mol
447.85 K, Mass density=581.06 kg/m3 | 250.96 J/K/mol
447.95 K, Mass density=581.06 kg/m3 | 253.06 J/K/mol
448.05 K, Mass density=581.06 kg/m3 | 255.1 J/K/mol
448.15 K, Mass density=581.06 kg/m3 | 251.08 J/K/mol
448.25 K, Mass density=581.06 kg/m3 | 251.08 J/K/mol
448.35 K, Mass density=581.06 kg/m3 | 253.18 J/K/mol
448.54 K, Mass density=581.06 kg/m3 | 253.06 J/K/mol
448.64 K, Mass density=581.06 kg/m3 | 255.16 J/K/mol
448.74 K, Mass density=581.06 kg/m3 | 253.12 J/K/mol
448.84 K, Mass density=581.06 kg/m3 | 251.14 J/K/mol
448.94 K, Mass density=581.06 kg/m3 | 253.18 J/K/mol
449.04 K, Mass density=581.06 kg/m3 | 253.24 J/K/mol
449.14 K, Mass density=581.06 kg/m3 | 255.28 J/K/mol
449.24 K, Mass density=581.06 kg/m3 | 253.3 J/K/mol
449.34 K, Mass density=581.06 kg/m3 | 253.3 J/K/mol
449.44 K, Mass density=581.06 kg/m3 | 253.3 J/K/mol
449.63 K, Mass density=581.06 kg/m3 | 251.56 J/K/mol
449.73 K, Mass density=581.06 kg/m3 | 253.6 J/K/mol
449.83 K, Mass density=581.06 kg/m3 | 255.7 J/K/mol
449.93 K, Mass density=581.06 kg/m3 | 255.7 J/K/mol
450.03 K, Mass density=581.06 kg/m3 | 251.62 J/K/mol
450.13 K, Mass density=581.06 kg/m3 | 249.63 J/K/mol
450.23 K, Mass density=581.06 kg/m3 | 255.82 J/K/mol
450.33 K, Mass density=581.06 kg/m3 | 253.78 J/K/mol
450.43 K, Mass density=581.06 kg/m3 | 253.78 J/K/mol
450.52 K, Mass density=581.06 kg/m3 | 253.84 J/K/mol
450.62 K, Mass density=581.06 kg/m3 | 253.54 J/K/mol
450.72 K, Mass density=581.06 kg/m3 | 251.86 J/K/mol
450.92 K, Mass density=581.06 kg/m3 | 253.72 J/K/mol
451.06 K, Mass density=581.06 kg/m3 | 251.62 J/K/mol
451.16 K, Mass density=581.06 kg/m3 | 252.94 J/K/mol
451.26 K, Mass density=581.06 kg/m3 | 249.63 J/K/mol
451.36 K, Mass density=581.06 kg/m3 | 249.63 J/K/mol
451.46 K, Mass density=581.06 kg/m3 | 249.69 J/K/mol
451.56 K, Mass density=581.06 kg/m3 | 249.69 J/K/mol
451.66 K, Mass density=581.06 kg/m3 | 251.8 J/K/mol
451.75 K, Mass density=581.06 kg/m3 | 250.3 J/K/mol
451.81 K, Mass density=581.06 kg/m3 | 247.95 J/K/mol
451.83 K, Mass density=581.06 kg/m3 | 250 J/K/mol and 186.78 J/K/mol
451.86 K, Mass density=581.06 kg/m3 | 181.85 J/K/mol
451.91 K, Mass density=581.06 kg/m3 | 175.18 J/K/mol
451.95 K, Mass density=581.06 kg/m3 | 179.26 J/K/mol
452.01 K, Mass density=581.06 kg/m3 | 174.52 J/K/mol

Details | molar heat capacity at constant volume [J/K/mol]
451.83 K, Liquid | 186.78
